This is an account of results in ChEMBL document CHEMBL1144271, “Carbonic anhydrase inhibitors: synthesis and inhibition of cytosolic/tumor-associated carbonic anhydrase isozymes I, II, and IX with bis-sulfamates” (Bioorg Med Chem Lett, 2005).

One test addresses Carbonic anhydrase 1 (Homo sapiens, UniProt P00915).
A further test deals with Carbonic anhydrase 9 (Homo sapiens, UniProt Q16790).

Where only a bound is given, the exact number is not on record here.

Carbonic anhydrase 1, sequence (P00915 whole entry): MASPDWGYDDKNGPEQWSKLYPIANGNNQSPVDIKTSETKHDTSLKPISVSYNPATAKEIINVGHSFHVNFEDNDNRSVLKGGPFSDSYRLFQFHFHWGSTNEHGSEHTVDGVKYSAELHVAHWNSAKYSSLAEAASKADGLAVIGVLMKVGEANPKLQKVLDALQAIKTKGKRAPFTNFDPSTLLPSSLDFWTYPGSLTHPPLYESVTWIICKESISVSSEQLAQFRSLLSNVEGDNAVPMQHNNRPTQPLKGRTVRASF

What is called Ki is the equilibrium dissociation constant of an inhibitor or competing ligand from its target. Read a low Ki as a stronger hold on the target. Regarding `C[C@]12CC[C@@H]3c4ccc(OS(N)(=O)=O)cc4CC[C@H]3[C@@H]1CC[C@@H]2OS(N)(=O)=O`, at Carbonic anhydrase 1, the Ki stood at 6000 nM.

Turning to `NS(=O)(=O)OCc1ccc(COS(N)(=O)=O)cc1`, the Ki on Carbonic anhydrase 9 was 61.6 nM; at Carbonic anhydrase 1, greater than 20 nM.

For the compound `NS(=O)(=O)OCCCCCCCOS(N)(=O)=O`, the affinity at Carbonic anhydrase 9 corresponds to a Ki of 10.1 nM.
